Experimental data as given in US8871749B2, “Bone-transplant or bone-filling composition comprising a dihydroxybenzoic acid derivative” (Cellsafe Co., Ltd., priority 2010, dated 2014).
Values after ≈ are worked out from the molar mass of the structure shown.

Tested on: MC3T3-E1 cells
Test: Alkaline phosphatase (ALP) activity of osteoblasts
Format: cell-based
Details: 5 μg/ml, 7 days
Method: After removing the medium, α-MEM supplemented with β-glycerophosphate and ascorbic acid were added thereto as a differentiation-inducing agent for osteoblasts. Each compound of Example 1 was added to the culture medium in the final concentration of 5 μg/ml. The plate containing the cells was cultured for 7 days. 100 μl of a cell lysis buffer (Sigma, Catalog number: MCL1) was added to the cells, which were then incubated at 37° C. for 30 minutes. The resulting mixture (50 μl) was reacted with p-nitrophenyl phosphate as a substrate in a 0.1N glycine-NaOH buffer (pH 9.8), at 37° C. for 30 minutes. Each amount of p-nitrophenol released from the substrate was quantified by measuring an absorbance at 405 nm using an ELISA reader (Bio-Tek instrument). […] The alkaline phosphatase activities were calculated by obtaining relative absorbance differences through comparing with a negative control (no treatment).

**Q.** With CCOC(=O)c1ccc(O)cc1O [NP33, ethyl 2,4-dihydroxybenzoate] as the compound, how does the “ALP activity (in words)” value read?
**A.** Its value is “most excellent ALP activities”.

**Q.** Which “ALP activity (in words)” value does the source give for CCOC(=O)c1cc(O)ccc1O [NP35, ethyl 2,5-dihydroxybenzoate] here?
**A.** The value was “most excellent ALP activities”.

Same assay, conditions: Mus musculus, 168 h, compound 5 μg/ml, 7 days, relative to negative control (100)

**Q.** For O=C(O)c1cc(O)ccc1O [NP23, 2,5-dihydroxybenzoic acid], which activity at 5 µg/mL is on record?
**A.** Its activity at 5 µg/mL is 152%.

**Q.** For O=C(O)c1ccc(O)cc1O [NP22, 2,4-dihydroxybenzoic acid], which activity at 5 µg/mL is on record?
**A.** The activity at 5 µg/mL was 153%.

**Q.** For O=C(O)c1cc(O)cc(O)c1 [NP32, 3,5-dihydroxybenzoic acid], which activity at 5 µg/mL is on record?
**A.** The activity at 5 µg/mL was 155%.

**Q.** For CCOC(=O)c1ccc(O)cc1O [NP33, ethyl 2,4-dihydroxybenzoate], which activity at 5 µg/mL is on record?
**A.** The activity at 5 µg/mL was 430%.

**Q.** For COC(=O)c1ccc(O)cc1O [NP34, methyl 2,4-dihydroxybenzoate], which activity at 5 µg/mL is on record?
**A.** Its activity at 5 µg/mL is 149%.

**Q.** For CCOC(=O)c1c(O)cccc1O [NP36, ethyl 2,6-dihydroxybenzoate], which activity at 5 µg/mL is on record?
**A.** Its activity at 5 µg/mL is 157%.

**Q.** Which activity at 5 µg/mL does the source give for O=C(O)c1cccc(O)c1O [NP21, 2,3-dihydroxybenzoic acid] here?
**A.** Its activity at 5 µg/mL is 147%.

**Q.** Which activity at 5 µg/mL does the source give for CCOC(=O)c1ccc(O)c(O)c1 [NP31, ethyl 3,4-dihydroxybenzoate] here?
**A.** Its activity at 5 µg/mL is 200%.

**Q.** For CCOC(=O)c1cc(O)cc(O)c1 [NP37, ethyl 3,5-dihydroxybenzoate], which activity at 5 µg/mL is on record?
**A.** The activity at 5 µg/mL was 153%.

**Q.** Which activity at 5 µg/mL does the source give for CCOC(=O)c1cc(O)ccc1O [NP35, ethyl 2,5-dihydroxybenzoate] here?
**A.** Its activity at 5 µg/mL is 560%.

Tested on: MC3T3-E1 cells
Test: In-vitro bone nodules of osteoblasts (calcium accumulation)
Format: cell-based
Details: 5 μg/ml, 27 days
Method: MC3T3-E1 cells (RIKEN Cell Bank, Japan) (2×10^3 cells per well) as an osteoblast cell line were placed on each well of a 24-well plate and then cultured for 24 hours. The medium was changed with α-MEM supplemented with β-glycerophosphate and ascorbic acid as a differentiation-inducing agent for osteoblasts. Each compound of Example 1 was added to the culture medium in the final concentration of 5 μg/ml. The plate containing the cells was cultured for 27 days while changing the medium every three days or every four days. […] No treatment was made to the negative control. In order to quantify the amount of calcium accumulated in the cells, the cells were washed with a biological saline, and then calcium (Ca) was extracted with a 0.5N HCl solution for 6 hours on an agitator. The extracted solution (100 μl) was reacted with a Calcium Reagent (Sigma, USA) at room temperature for 5 minutes. […] The amount of calcium accumulated in the cells was calculated by obtaining relative absorbance differences through comparing with a negative control (no treatment).

**Q.** Which “Calcium accumulation in the cells (in words)” value does the source give for CCOC(=O)c1ccc(O)cc1O [NP33, ethyl 2,4-dihydroxybenzoate] here?
**A.** Its value is “most excellent calcium accumulation in the cells”.

**Q.** With CCOC(=O)c1cc(O)ccc1O [NP35, ethyl 2,5-dihydroxybenzoate] as the compound, how does the “Calcium accumulation in the cells (in words)” value read?
**A.** The value was “most excellent calcium accumulation in the cells”.

Same assay, conditions: Mus musculus, 648 h, compound 5 μg/ml, 27 days, relative to negative control (100)

**Q.** Which activity at 5 µg/mL does the source give for O=C(O)c1cc(O)ccc1O [NP23, 2,5-dihydroxybenzoic acid] here?
**A.** The activity at 5 µg/mL was 163%.

**Q.** For O=C(O)c1ccc(O)cc1O [NP22, 2,4-dihydroxybenzoic acid], which activity at 5 µg/mL is on record?
**A.** Its activity at 5 µg/mL is 159%.

**Q.** With O=C(O)c1cc(O)cc(O)c1 [NP32, 3,5-dihydroxybenzoic acid] as the compound, how does the activity at 5 µg/mL read?
**A.** Its activity at 5 µg/mL is 163%.

**Q.** For CCOC(=O)c1ccc(O)cc1O [NP33, ethyl 2,4-dihydroxybenzoate], which activity at 5 µg/mL is on record?
**A.** Its activity at 5 µg/mL is 420%.

**Q.** With COC(=O)c1ccc(O)cc1O [NP34, methyl 2,4-dihydroxybenzoate] as the compound, how does the activity at 5 µg/mL read?
**A.** The activity at 5 µg/mL was 158%.

**Q.** Which activity at 5 µg/mL does the source give for CCOC(=O)c1c(O)cccc1O [NP36, ethyl 2,6-dihydroxybenzoate] here?
**A.** Its activity at 5 µg/mL is 160%.

**Q.** With O=C(O)c1cccc(O)c1O [NP21, 2,3-dihydroxybenzoic acid] as the compound, how does the activity at 5 µg/mL read?
**A.** The activity at 5 µg/mL was 132%.

**Q.** Which activity at 5 µg/mL does the source give for CCOC(=O)c1ccc(O)c(O)c1 [NP31, ethyl 3,4-dihydroxybenzoate] here?
**A.** Its activity at 5 µg/mL is 180%.

**Q.** For CCOC(=O)c1cc(O)cc(O)c1 [NP37, ethyl 3,5-dihydroxybenzoate], which activity at 5 µg/mL is on record?
**A.** The activity at 5 µg/mL was 159%.

**Q.** For CCOC(=O)c1cc(O)ccc1O [NP35, ethyl 2,5-dihydroxybenzoate], which activity at 5 µg/mL is on record?
**A.** Its activity at 5 µg/mL is 580%.

Tested on: mandiblar molars transplanted into the kidney of female mouse (C57BL/6)
Test: Alveolar bone formation activity, compound-soaked collagen bead in mandiblar molar transplanted into mouse kidney
Format: in vivo
Details: 504 h; collagen bead dipped in 1 mg/ml solution (1-2 μg compound), molar transplanted into mouse kidney, after 3 weeks, stained area vs negative control (100%)
Method: Each compound of Example 1 was dissolved in a sterile biological saline to obtain a solution having a concentration of 1 mg/ml. Collagen bead (diameter: 1×2 mm, Gibco) used as a bone-grafting material was dipped into each solution at 37° C. for 45 minutes. Each resulting wet bead includes about 1-2 μl of the solution, and therefore 1-2 μg of each compound. Mandiblar molars before tooth-root formation were isolated from mice. The wet bead was inserted in the center of dental pulp of each isolated mandiblar molar, using tweezers. The resulting mandiblar molars were transplanted into the kidney of female mouse (C57BL/6). After 3 weeks, the growing molar teeth were fixed with a formalin solution and then stained with a Morse's solution. The stained sites were visualized under a microscope (Olympus IX71) and then the area was measured with an imageWarp software (London, England). The effects of the compounds on alveolar bone formation were evaluated by comparing with the negative control (100%).

**Q.** For O=C(O)c1cc(O)ccc1O [NP23, 2,5-dihydroxybenzoic acid], which response vs control in vivo at 1000 µg/mL is on record?
**A.** The response vs control in vivo at 1000 µg/mL was 119%.

**Q.** With O=C(O)c1ccc(O)cc1O [NP22, 2,4-dihydroxybenzoic acid] as the compound, how does the response vs control in vivo at 1000 µg/mL read?
**A.** The response vs control in vivo at 1000 µg/mL was 121%.

**Q.** With O=C(O)c1cc(O)cc(O)c1 [NP32, 3,5-dihydroxybenzoic acid] as the compound, how does the response vs control in vivo at 1000 µg/mL read?
**A.** Its response vs control in vivo at 1000 µg/mL is 123%.

**Q.** With CCOC(=O)c1ccc(O)cc1O [NP33, ethyl 2,4-dihydroxybenzoate] as the compound, how does the response vs control in vivo at 1000 µg/mL read?
**A.** The response vs control in vivo at 1000 µg/mL was 300%.

**Q.** Which response vs control in vivo at 1000 µg/mL does the source give for COC(=O)c1ccc(O)cc1O [NP34, methyl 2,4-dihydroxybenzoate] here?
**A.** Its response vs control in vivo at 1000 µg/mL is 130%.

**Q.** For CCOC(=O)c1c(O)cccc1O [NP36, ethyl 2,6-dihydroxybenzoate], which response vs control in vivo at 1000 µg/mL is on record?
**A.** Its response vs control in vivo at 1000 µg/mL is 121%.

**Q.** With O=C(O)c1cccc(O)c1O [NP21, 2,3-dihydroxybenzoic acid] as the compound, how does the response vs control in vivo at 1000 µg/mL read?
**A.** The response vs control in vivo at 1000 µg/mL was 110%.

**Q.** Which response vs control in vivo at 1000 µg/mL does the source give for CCOC(=O)c1ccc(O)c(O)c1 [NP31, ethyl 3,4-dihydroxybenzoate] here?
**A.** Its response vs control in vivo at 1000 µg/mL is 150%.

**Q.** With CCOC(=O)c1cc(O)cc(O)c1 [NP37, ethyl 3,5-dihydroxybenzoate] as the compound, how does the response vs control in vivo at 1000 µg/mL read?
**A.** Its response vs control in vivo at 1000 µg/mL is 122%.

**Q.** With CCOC(=O)c1cc(O)ccc1O [NP35, ethyl 2,5-dihydroxybenzoate] as the compound, how does the response vs control in vivo at 1000 µg/mL read?
**A.** The response vs control in vivo at 1000 µg/mL was 450%.

Same assay, conditions: mouse kidney transplant of molar with compound bead, 3 weeks

**Q.** Which “Alveolar bone formation activity (in words)” value does the source give for CCOC(=O)c1ccc(O)cc1O [NP33, ethyl 2,4-dihydroxybenzoate] here?
**A.** The value was “most excellent alveolar bone formation activities”.

**Q.** Which “Alveolar bone formation activity (in words)” value does the source give for CCOC(=O)c1cc(O)ccc1O [NP35, ethyl 2,5-dihydroxybenzoate] here?
**A.** Its value is “most excellent alveolar bone formation activities”.

Tested on: not listed separately
Test: in vitro
Details: mouse
Method: (§1) In order to evaluate the cytotoxicities of the compounds designed in Example 1, L929 cells (RIKEN Cell Bank, Japan) (1×10^4 cells per well) were placed on each well of a 96-well plate and then cultured for 12 hours. The cells were treated with each compound in predetermined concentrations and then cultured for 48 hours. After removing the medium, a MTT (3-(4,5-dimethylthiazol-2-yl)-2,5-diphenyltetrazolium bromide) solution (100 μl per well) was added to the cells, which were then incubated for 4 hours. After removing the supernatant, each well was treated with a DMSO solution (100 μl per well) and then incubated at room temperature for 10 minutes for extraction. An absorbance at 550 nm was measured with an ELISA reader (Bio-Tek instrument). The CC50 (Cytotoxic Concentration 50%) values were determined by comparing with a negative control (no treatment).

**Q.** For O=C(O)c1ccc(O)cc1O [NP22, 2,4-dihydroxybenzoic acid], which CC50 at 48 h is on record?
**A.** The CC50 at 48 h was 150 µg/mL (≈ 973 µM).

Tested on: not listed separately
Test: Cytotoxicity test (MTT)
Details: mouse, L929 cells
Method: as §1

**Q.** For O=C(O)c1cc(O)ccc1O [NP23, 2,5-dihydroxybenzoic acid], which CC50 at 48 h is on record?
**A.** The CC50 at 48 h was 200 µg/mL (≈ 1300 µM).

**Q.** For O=C(O)c1cc(O)cc(O)c1 [NP32, 3,5-dihydroxybenzoic acid], which CC50 at 48 h is on record?
**A.** The CC50 at 48 h was 150 µg/mL (≈ 973 µM).

**Q.** For CCOC(=O)c1ccc(O)cc1O [NP33, ethyl 2,4-dihydroxybenzoate], which CC50 at 48 h is on record?
**A.** The CC50 at 48 h was 100 µg/mL (≈ 549 µM).

**Q.** With COC(=O)c1ccc(O)cc1O [NP34, methyl 2,4-dihydroxybenzoate] as the compound, how does the CC50 at 48 h read?
**A.** Its CC50 at 48 h is 150 µg/mL (≈ 892 µM).

**Q.** For CCOC(=O)c1c(O)cccc1O [NP36, ethyl 2,6-dihydroxybenzoate], which CC50 at 48 h is on record?
**A.** The CC50 at 48 h was 200 µg/mL (≈ 1100 µM).

**Q.** With O=C(O)c1cccc(O)c1O [NP21, 2,3-dihydroxybenzoic acid] as the compound, how does the CC50 at 48 h read?
**A.** Its CC50 at 48 h is 150 µg/mL (≈ 973 µM).

**Q.** Which CC50 at 48 h does the source give for CCOC(=O)c1ccc(O)c(O)c1 [NP31, ethyl 3,4-dihydroxybenzoate] here?
**A.** Its CC50 at 48 h is 100 µg/mL (≈ 549 µM).

**Q.** With CCOC(=O)c1cc(O)cc(O)c1 [NP37, ethyl 3,5-dihydroxybenzoate] as the compound, how does the CC50 at 48 h read?
**A.** The CC50 at 48 h was 150 µg/mL (≈ 823 µM).

**Q.** With CCOC(=O)c1cc(O)ccc1O [NP35, ethyl 2,5-dihydroxybenzoate] as the compound, how does the CC50 at 48 h read?
**A.** The CC50 at 48 h was 150 µg/mL (≈ 823 µM).
